Measured values from ChEMBL document CHEMBL1201862, “PubChem BioAssay data set” (2004).
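Tested at 5 concentrations; 48 h exposure; 96-well plates; endpoints linearly interpolated, else capped at highest concentration. GI50: concentration for 50% inhibition of growth.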 Activity calls are given as the source filed them. Cut-off read from the data, not from the text of the source: active = GI50 up to about 1.1 µM and inactive = higher.

Assays:
Assay in all cases: inhibition of tumour cell growth, NCI panel, 48 h
786-0 = system: 786-0
OVCAR-5 = system: OVCAR-5
A498 = system: A498
EKVX = system: EKVX
LOX IMVI = system: LOX IMVI
RXF 393 = system: RXF 393
SNB-19 = system: SNB-19
RPMI-8226 = system: RPMI-8226
HCT-116 = system: HCT-116
HT-29 = system: HT-29
Malme-3M = system: Malme-3M
CAKI-1 = system: CAKI-1
SK-MEL-5 = system: SK-MEL-5
SW-620 = system: SW-620
ACHN = system: ACHN
UO-31 = system: UO-31
SK-MEL-2 = system: SK-MEL-2
SK-OV-3 = system: SK-OV-3
NCI-H522 = system: NCI-H522

Measured: GI50

N#Cc1ccccc1NC(=O)C(=O)C1NC(=S)NC1=O (stereo not given)
inactive: 786-0 > 100 µM | OVCAR-5 > 100 µM | A498 > 100 µM | EKVX > 100 µM | LOX IMVI > 100 µM | RXF 393 > 100 µM | SNB-19 > 100 µM | RPMI-8226 > 100 µM | HCT-116 > 100 µM | HT-29 > 100 µM | Malme-3M > 100 µM | CAKI-1 > 100 µM | SK-MEL-5 > 100 µM | SW-620 > 100 µM | ACHN > 100 µM

C=CCc1cc(OC)c2c(c1)C(OC)CC(c1ccc(OC)c(OC)c1)O2 (stereo not given)
inactive: UO-31 42.3 µM | 786-0 > 100 µM | SK-MEL-2 > 100 µM | OVCAR-5 > 100 µM | SK-OV-3 > 100 µM | A498 > 100 µM | EKVX > 100 µM | LOX IMVI > 100 µM | SNB-19 > 100 µM | RPMI-8226 38 µM | HCT-116 > 100 µM | HT-29 > 100 µM | Malme-3M 55.1 µM | CAKI-1 94.8 µM | SK-MEL-5 > 100 µM | SW-620 > 100 µM | ACHN 71.9 µM

O=C(CC(=O)n1nc(-c2ccccc2)c(/N=N/c2ccccc2C(=O)O)c1-c1ccccc1)Nc1ccc(Cl)cc1
inactive: UO-31 15.5 µM | 786-0 36.1 µM | SK-MEL-2 29.5 µM | OVCAR-5 43 µM | EKVX 30.7 µM | RXF 393 7.66 µM | SNB-19 21.7 µM | RPMI-8226 20.4 µM | HCT-116 17.9 µM | HT-29 34.2 µM | Malme-3M 75 µM | SK-MEL-5 42 µM | SW-620 63.8 µM | ACHN 33.5 µM

COC1=CC(=Nc2c(Cl)cc(Cl)cc2OC(=O)c2ccc([N+](=O)[O-])cc2)C=C(OC)C1=O
inactive: UO-31 11.9 µM | 786-0 14.8 µM | SK-MEL-2 15.8 µM | OVCAR-5 19.5 µM | SK-OV-3 16.5 µM | EKVX 16 µM | NCI-H522 9.23 µM | LOX IMVI 1.81 µM | RXF 393 12.1 µM | SNB-19 16.4 µM | RPMI-8226 5.04 µM | HCT-116 6.53 µM | HT-29 18.4 µM | Malme-3M 15.5 µM | CAKI-1 16.9 µM | SK-MEL-5 7.05 µM | SW-620 13.5 µM | ACHN 10.7 µM

CC1=NOC(=O)/C1=C/c1ccccc1O
inactive: UO-31 > 100 µM | 786-0 > 100 µM | SK-MEL-2 > 100 µM | OVCAR-5 > 100 µM | SK-OV-3 > 100 µM | EKVX > 100 µM | NCI-H522 > 100 µM | LOX IMVI > 100 µM | SNB-19 > 100 µM | HCT-116 > 100 µM | HT-29 > 100 µM | Malme-3M > 100 µM | CAKI-1 > 100 µM | SK-MEL-5 > 100 µM | SW-620 20.4 µM | ACHN > 100 µM

CC(=O)OCC(C)C1=C(OC(C)=O)C(=O)C2(C)C/C=C(/C)CC/C=C(\C)CCC(OC(C)=O)C(C)CCC12 (stereo not given)
inactive: UO-31 16.8 µM | 786-0 13.7 µM | SK-MEL-2 15 µM | OVCAR-5 12.8 µM | LOX IMVI 16.9 µM | SNB-19 17.3 µM | RPMI-8226 14.3 µM | HCT-116 16.9 µM | HT-29 17.8 µM | SK-MEL-5 15.3 µM | SW-620 19.5 µM | ACHN 18.2 µM

C/N=C1\CC2c3cc(OC)c(OC)cc3CCN2C2=C1C(=O)CC(C)(C)C2 (stereo not given)
inactive: UO-31 > 100 µM | 786-0 > 100 µM | SK-MEL-2 > 100 µM | OVCAR-5 > 100 µM | A498 > 100 µM | EKVX > 100 µM | NCI-H522 > 100 µM | LOX IMVI > 100 µM | RXF 393 > 100 µM | SNB-19 > 100 µM | HCT-116 > 100 µM | HT-29 > 100 µM | Malme-3M > 100 µM | CAKI-1 > 100 µM | SK-MEL-5 > 100 µM | SW-620 > 100 µM | ACHN > 100 µM

C=CCOC(=O)C1CCC(=O)N1C(=O)C(Cl)Cl (stereo not given)
inactive: UO-31 > 100 µM | 786-0 > 100 µM | SK-MEL-2 > 100 µM | OVCAR-5 > 100 µM | SK-OV-3 > 100 µM | A498 > 100 µM | EKVX > 100 µM | NCI-H522 > 100 µM | LOX IMVI > 100 µM | SNB-19 > 100 µM | RPMI-8226 > 100 µM | HCT-116 > 100 µM | HT-29 > 100 µM | Malme-3M > 100 µM | CAKI-1 > 100 µM | SK-MEL-5 > 100 µM | SW-620 > 100 µM | ACHN > 100 µM

COc1c(C)cc2c(C(C)C)c(O)c(O)c(C=O)c2c1O
inactive: UO-31 31.3 µM | 786-0 26.4 µM | SK-MEL-2 15.8 µM | OVCAR-5 28.9 µM | SK-OV-3 29.9 µM | EKVX 27 µM | NCI-H522 25.6 µM | LOX IMVI 24 µM | RXF 393 21.6 µM | SNB-19 35.7 µM | RPMI-8226 37.9 µM | HCT-116 20.7 µM | HT-29 13.3 µM | Malme-3M 16.2 µM | SK-MEL-5 16 µM | SW-620 40.6 µM | ACHN 29.6 µM

Cc1ccn2c(c1)nc1nc3ccccc3nc12
inactive: UO-31 > 100 µM | 786-0 > 100 µM | SK-MEL-2 > 100 µM | OVCAR-5 > 100 µM | SK-OV-3 59.6 µM | EKVX > 100 µM | NCI-H522 > 100 µM | LOX IMVI > 100 µM | RXF 393 > 100 µM | SNB-19 > 100 µM | RPMI-8226 > 100 µM | HT-29 > 100 µM | CAKI-1 > 100 µM | SK-MEL-5 > 100 µM | SW-620 > 100 µM | ACHN 96.6 µM

NN/C(Cc1ccccc1)=N\NO
inactive: 786-0 > 100 µM | SK-MEL-2 > 100 µM | OVCAR-5 > 100 µM | A498 > 100 µM | EKVX > 100 µM | LOX IMVI 33.3 µM | RXF 393 > 100 µM | SNB-19 > 100 µM | HCT-116 47.2 µM | HT-29 > 100 µM | Malme-3M > 100 µM | CAKI-1 > 100 µM | SK-MEL-5 53.7 µM | SW-620 > 100 µM | ACHN 69.3 µM

CC[C@@H]1C[C@H]2CC3c4[nH]c5ccc(O)cc5c4CCN(C2)C31
inactive: UO-31 > 100 µM | 786-0 > 100 µM | SK-MEL-2 > 100 µM | OVCAR-5 > 100 µM | EKVX > 100 µM | LOX IMVI > 100 µM | RXF 393 72.3 µM | SNB-19 > 100 µM | RPMI-8226 > 100 µM | HCT-116 > 100 µM | HT-29 > 100 µM | Malme-3M > 100 µM | CAKI-1 > 100 µM | SW-620 > 100 µM | ACHN > 100 µM
